Data: patent US20060281670A1, “Compositions and methods for modulating angiogenesis” (Wisconsin Alumni Research Foundation (WARF), priority 2005, published 2006)

Assays:
[1] = test system: Yolk sac endothelial cells (YSECs); conditions: for rescue of tube formation in IBMX+NK-B treated cells: 100 ng/ml mouse VEGF164 or 30 ng/ml mouse bFGF
Protocol: (§1) Vascular network assembly was assessed by measuring the formation of capillary-like structures by endothelial cells on Matrigel (BD Biosciences, San Jose, Calif.). Matrigel was diluted 1:1 with supplement-free M200 medium, poured in 24-well plates, and allowed to solidify at 37° C. Subconfluent endothelial cells were harvested and preincubated under different experimental conditions (YSECs, 1 h; HUVECs, HAECs, and human microvascular endothelial cells (HMVECs), 2 h in supplement-free M200 medium in microfuge tubes. An equal volume of supplemented medium containing the indicated reagents was added. Cells were plated on Matrigel (1.5×10^5 cells/well) and incubated at 37° C. Vascular network assembly was measured as a function of time, and digital pictures were captured.

[2] = test system: chorioallantoic membrane (CAM); assay: Chick chorioallantoic membrane assay; assay type: in vivo, chicken; conditions: L733060 5 μM, SB222200 2 μM, alone or combined; day 7 embryos, 48 h
Protocol: Fertilized chicken eggs were incubated at 39° C. with 90% humidity. On embryonic day 7, a small hole was drilled at the end of the egg that contains the air sac to lower the embryo. A second hole was made above the chorioallantoic membrane (CAM), and 100 μl of a 1.5% solution of methylcellulose (Stem Cell Technologies, Vancouver, BC) containing either FGF2 (500 ng) or VEGF (200 ng) and vehicle, IBMX (100 μg), NK-B (40 μg)/IBMX, or mutant NK-B (40 μg)/IBMX were applied to the CAM. A solution of penicillin/streptomycin was added, and the eggs were sealed with transparent tape. Vasculature was analyzed after 48 h, and digital images were captured at 40× magnification.

HUVECs = assay: Vascular network assembly assay on Matrigel; assay type: cell-based, human
Protocol: as §1

YSECs [3] = assay: Calcium imaging (Ca+2 oscillations); assay type: cell-based, mouse; conditions: YSECs on Matrigel, supplemented medium
Protocol: Cells were incubated for ˜30 min in 4 μM fluo-4/AM (Molecular Probes, Carlsbad, Calif.) in supplement-free M200 medium at 37° C., trypsinized, plated on Matrigel with indicated reagents, and allowed to adhere for 10 min. Time-lapse video microscopy with an Olympus AX70 laser scanning confocal microscope was used to measure intracellular Ca^+2 as described previously (Robles et al., 2003). An argon laser at 488 nm was used to excite Fluo-4, and the emitted light was detected at wavelengths>510 nm. Images were acquired at 15 s intervals and analyzed using Image J (Image Processing and Analysis in JAVA, Nat'l Inst. Health). When indicated, the fluorescence intensity in the region of interest (F) was normalized by dividing the Ca+2 signal by the fluorescence intensity of the resting cell at time 0 (F0).

YSECs [4] = assay: cAMP assay; assay type: cell-based, mouse; conditions: supplement-free M200 medium
Protocol: Cells were cultured in 6-well plates (2×10^5 cells/well), washed with supplement-free M200 medium and treated with indicated reagents at 37° C. The reactions were terminated by aspiration of the medium. Cells were washed with PBS and lysed in 500 μl of 0.1 N HCl containing 0.5% Triton X-100. cAMP was assayed in cell lysates (100 μl) using a direct cAMP enzyme-linked immunosorbent assay (Assay Designs, Inc., Ann Arbor, Mich.).

[5] = test system: human aortic endothelial cells (HAECs); assay: Vascular network assembly assay on Matrigel; assay type: cell-based; conditions: NK-B, U46619 (2 μM) or both, 2 h, 16 h on Matrigel
Protocol: as §1

calreticulin in YSECs = assay: Calreticulin 2D gel electrophoresis and Western blot; assay type: cell-based, mouse; conditions: 2 μM ionomycin, 1 h, supplement-free M200 medium
Protocol: […] Cells were processed and proteins analyzed as described above in Example 2.
Cells were harvested, washed twice with ice-cold PBS, and lysed in lysis buffer containing 10 mM Tris (pH 7.4), 0.3% SDS, 100 μg/mL Ribonuclease A (Sigma), 200 μg/mL DNase I (Sigma), 20 μg/mL leupeptin (Sigma), 6 μg/mL E-64 (Sigma), 1 mM EDTA (Calbiochem), and 100 μg/mL benzamidine (Sigma). Cells were incubated on ice for 30 min, an equal volume of loading buffer containing 60 mM Tris (pH 6.8), 5% SDS, 10% glycerol was added, and samples were boiled for 5 min. 2D gel electrophoresis was conducted using pH 3.5-10 ampholines, and proteins were detected by Coomassie Blue staining. […]
The following antibodies were used for Western blots: Anti-phospho-FAK (Tyr-397) (Biosource, 44-624G); anti-FAK, anti-phospho-Akt (Ser 473), anti-Akt, anti-phospho-p44/42 MAP kinase (Thr 202/Tyr 204), anti-p44/42 MAP kinase antibodies (Cell Signaling Technology); anti-calreticulin (Upstate, 06-661); anti-α-tubulin (Calbiochem); anti Flt-1 (Santa Cruz Biotech, C-17); anti-Flk-1 (Cell Signaling Technologies, 2479). […] Extracts were resolved on SDS polyacrylamide gels, transferred to Immobilon P membranes (Millipore, Billerica, Mass.), and analyzed by Western blotting. Proteins were detected by chemiluminescence using ECL-Plus (Amersham Biosciences Piscataway, N.J.).

[6] = test system: Flt-1 and Flk-1 (VEGF receptors) in YSECs; assay: Gene expression analysis by real-time RT-PCR; assay type: cell-based, mouse; conditions: for rescue of Flt-1 and Flk-1 expression and cell signaling: NK-B/IBMX-treated YSECs, growth factor 100 ng/ml
Protocol: Real-time RT-PCR was conducted Total RNA was purified with Trizol (Invitrogen). cDNA was prepared by annealing RNA (1 μg) with 250 ng of a 1:5 mixture of random and oligo(dT) primers (Promega) at 68° C. for 10 min, followed by incubation with Moloney Murine Leukemia Virus reverse transcriptase (Invitrogen) with 10 mM dithiothreitol, RNasin (Promega), and 0.5 mM dNTPs at 42° C. for 1 h. Reactions were diluted to a final volume of 100 μl and subjected to heat-inactivation at 98° C. for 10 min. Reactions (25 μl) contained 2.5 μl of cDNA, 12.5 μl of SYBR Green Master Mix (Applied Biosystems), and appropriate primers. Product accumulation was monitored by SYBR Green fluorescence. Control reactions lacking RT yielded little or no signals. The relative expression levels were determined from a standard curve of serial dilutions of cDNA samples from untreated control cells, and measurements were conducted under conditions of linearity.
Real time RT-PCR primers were designed using PRIMER EXPRESS 1.0 (PE Applied Biosystems) to amplify 50-150 bp amplicons and were based on GenBank Ensembl sequences.

CC(C)Cn1c(=O)n(C)c(=O)c2[nH]cnc21 [IBMX, 3-Isobutyl-1-methylxanthine]
vascular network assembly (capillary like tube formation) ([1]; 250 μM IBMX, 10 μM forskolin, 100 μM NK-B, 20 h, 3 experiments): has little effect on vascular network assembly

Cl.FC(F)(F)c1cc(CO[C@H]2CCCN[C@H]2c2ccccc2)cc(C(F)(F)F)c1 [L733060]
microvessel density of CAM [2]: much higher

CC[C@H](NC(=O)c1c(C)c(-c2ccccc2)nc2ccccc12)c1ccccc1 [SB222200, (S)-3 methyl-2-phenyl-N-(1-phenylpropyl)-4-quinilinecarboxamide]
microvessel density of CAM [2]: much higher

CCCCC[C@H](O)/C=C/[C@@H]1[C@@H](C/C=C\CCCC(=O)O)[C@H]2CO[C@@H]1C2 [U46619]
vascular network assembly (HUVECs; NK-B, U46619 (2 μM) or both, 2 h, 16 h on Matrigel): had little effect
Ca+2 oscillations (YSECs [3]): decreasing the amount of Ca^2+ oscillations
cAMP (YSECs [4]): decrease the amount of cAMP
vascular network assembly ([1]; NK-B, U46619 (2 μM) or both, 1 h, 16 h on Matrigel): had little effect
vascular network assembly [5]: had little effect

C[C@H](CCC(=O)O)C[C@H](C)C[C@H](C)C(=O)/C=C(\O)[C@H](C)C[C@H](C)C/C=C/[C@@H](C)[C@@H](O)[C@@H](C)[C@@H](O)C[C@@H]1CC[C@@](C)([C@H]2CC[C@@](C)([C@@H](C)O)O2)O1 [ionomycin]
calreticulin/alpha-tubulin ratio increase (calreticulin in YSECs): ~2 fold

FGF2: fibroblast growth factor-2 (bovine FGF2 from R & D systems; also called mouse FGF2/bFGF)
rescue of tube formation in IBMX+NK-B treated cells [1]: but not bFGF Rescues the NK-B Effect
rescue of Flt-1 and Flk-1 expression and cell signaling [6]: but not FGF2, rescues Flt-1 and Flk-1 expression and cell signaling
FGFR1 transcription ([6]; YSECs, 100 ng/ml FGF2 with or without NK-B): increased

VEGF
rescue of tube formation in IBMX+NK-B treated cells [1]: can form capillary-like tubes but in a slower kinetics
rescue of Flt-1 and Flk-1 expression and cell signaling [6]: rescues Flt-1 and Flk-1 expression and cell signaling

B1: calreticulin: E. coli overexpressed and purified recombinant calreticulin, anti-angiogenic protein (protein, UniProt P27797 18-417, looked up)
Calreticulin: EPAVYFKEQFLDGDGWTSRWIESKHKSDFGKFVLSSGKFYGDEEKDKGLQTSQDARFYALSASFEPFSNKGQTLVVQFTVKHEQNIDCGGGYVKLFPNSLDQTDMHGDSEYNIMFGPDICGPGTKKVHVIFNYKGKNVLINKDIRCKDDEFTHLYTLIVRPDNTYEVKIDNSQVESGSLEDDWDFLPPKKIKDPDASKPEDWDERAKIDDPTDSKPEDWDKPEHIPDPDAKKPEDWDEEMDGEWEPPVIQNPEYKGEWKPRQIDNPDYKGTWIHPEIDNPEYSPDPSIYAYDNFGVLGLDLWQVKSGTIFDNFLITNDEAYAEEFGNETWGVTKAAEKQMKDKQDEEQRLKEEEEDKKRKEEEEAEDKEDDEDKDEDEEDEEDKEEDEEEDVPGQAKDEL
vascular network assembly (HUVECs; calreticulin 13 μg/ml, vasostatin 5 μg/ml, 1 h): inhibit YSEC and HUVEC vascular network assembly
Flt-1 and Flk-1 transcription ([6]; YSECs, forskolin (10 μM)/IBMX, calreticulin (13 μg/ml), vasostatin (5 μg/ml), 1, 2 or 5 h on Matrigel): failed to affect Flt-1 and Flk-1 transcription
